The subject of data set [1] is human breast cancer MDA-MB-231 xenograft. In words: in vivo metastasis mouse Model 1 (seeding and early colonization of circulating tumour cells). Also noted: species or system mice. The conditions noted are these: 3.5 mg/Kg intraperitoneal daily for 10 days, relative luminescence of thoracic region; for inhibition of metastasis / tumour burden in Model 1: versus controls and compound 12. The method, then:
In all experiments, each compound was administered by intraperitoneally at 3.5 mg/kg.
One model (Model 1) studied the effect of the compound's ability to inhibit the seeding and early colonization of circulating tumour cells at distal sites, most commonly in the lungs and liver. Human tumour cell lines were injected into the bloodstream of recipient mice, followed by single daily intraperitoneal injections of the compound (3.5 mg/kg in 1% DMSO) for 10 consecutive days. Tumour burden was monitored longitudinally for up to 8 weeks in vivo by live luminescence imaging, and subsequently histology performed on affected organs at the end of the experiment.
Model 1 tested the effect of Bcl3i compounds to inhibit the seeding and early colonization of circulating tumour cells at distal sites, most commonly in the lungs and liver. Human tumour cell lines were injected into the bloodstream of recipient mice, followed by single daily intraperitoneal injections of Bcl3 inhibitor (3.5 mg/kg in 1% DMSO) for 10 consecutive days. Tumour burden was monitored longitudinally for up to 8 weeks in vivo by live luminescence imaging, and subsequently histology performed on affected organs at the end of the experiment.
The X axis represents the number of days after xenograft and the Y axis is the relative luminescence of the thoracic region by Xenon IVIS scanning of mice following injection of d-luciferin for 10 minutes.
MDA-MB-231 human breast cancer cells were used in each of the three xenograft models of metastatic breast cancer.

Broadly, the melting point is the temperature of the solid-liquid transition. Compound `CN1CCN(CCNC(=O)c2ccccc2NC(=O)c2ccc(F)cc2F)CC1` [Compound 57, 2,4-difluoro-N-(2-((2-(4-methylpiperazin-1-yl)ethyl)carbamoyl)phenyl)benzamide] gave a melting point of 121 to 122 °C.
`COc1cccc(C(=O)NCCCc2ccccc2)c1NC(=O)c1cccc2ccccc12` [Compound 125, N-(2-methoxy-6-((3-phenylpropyl)carbamoyl)phenyl)-1-naphthamide] came in with a melting point of 150 to 152 °C.
Same read-out and setting: under `O=C(Nc1ccccc1C(=O)NCCN1CCNCC1)c1ccc([N+](=O)[O-])cc1` [Compound 38, 2-(4-nitrobenzamido)-N-(2-(piperazin-1-yl)ethyl)benzamide] stands 98 °C; under `COc1cc(C(=O)NCCCN2CCOCC2)c(NC(=O)c2cccnc2)c(OC)c1OC` [Compound 132, N-(2,3,4-trimethoxy-6-((3-morpholinopropyl)carbamoyl)phenyl) nicotinamide], 120 to 122 °C; under `COc1ccc(C(=O)Nc2ccccc2C(=O)NCCN2CCNCC2)cc1` [Compound 42, 2-(4-methoxybenzamido)-N-(2-(piperazin-1-yl)ethyl)benzamide], 91 °C.
Still for that read-out and setting: under `CN1CCN(CCNC(=O)c2ccccc2NC(=O)c2cccc(C(F)(F)F)c2)CC1` [Compound 114, N-(2-(4-methylpiperazin-1-yl)ethyl)-2-(3-(trifluoromethyl)benzamido) benzamide] stands 101 to 103 °C; under `CN1CCN(CCNC(=O)c2ccccc2NC(=O)c2ccc(C(F)(F)F)cc2)CC1` [Compound 108], 68 to 71 °C; under `COc1ccc(C(=O)Nc2cccc(F)c2C(=O)NCCN2CCN(C)CC2)cc1` [Compound 109, 2-fluoro-6-(4-methoxybenzamido)-N-(2-(4-methylpiperazin-1-yl)ethyl)benzamide], 81 to 83 °C.
On the same count and under the same terms, under `CN1CCN(CCNC(=O)c2ccccc2NC(=O)c2cccnc2)CC1` [Compound 63, N-(2-((2-(4-methylpiperazin-1-yl)ethyl)carbamoyl)phenyl) nicotinamide] stands 99 °C; under `COc1ccc(C(=O)Nc2ccccc2C(=O)NCCCN2CCOCC2)cc1` [Compound 35, 2-(4-methoxybenzamido)-N-(3-morpholinopropyl)benzamide], 112 to 114 °C; under `O=C(Nc1ccccc1C(=O)NCCN1CCOCC1)c1ccc(C(F)(F)F)cc1` [Compound 11, N-(2-morpholinoethyl)-2-(4-(trifluoromethyl)benzamido) benzamide], 99 to 101 °C.
For the compound `COc1ccc(C(=O)Nc2cccc(F)c2C(=O)NCCN2CCOCC2)c(F)c1` [Compound 28], the melting point is 105 to 107 °C. Also, in data set [1], the “inhibition of metastasis / tumour burden in Model 1” value was “significant reduction in tumour burden compared to controls but reduced effect compared to compound 12”.
In the case of `CN1CCN(CCNC(=O)c2ccccc2NC(=O)c2ccc(F)cc2)CC1` [Compound 107, 2-(4-fluorobenzamido)-N-(2-(4-methylpiperazin-1-yl)ethyl)benzamide], the melting point lay within 89 to 91 °C.
For `CN1CCN(CCNC(=O)c2ccccc2NC(=O)c2ccccc2)CC1` [Compound 47, 2-benzamido-N-(2-(4-methylpiperazin-1-yl)ethyl)benzamide], the melting point came out at 80 °C.
For the compound `COc1ccc(C(=O)Nc2c(OC)cccc2C(=O)NCCc2ccccc2)c(OC)c1` [Compound 93, 2-(2,4-dimethoxybenzamido)-3-methoxy-N-phenethylbenzamide], the melting point lay in the range of 132 to 134 °C.
The same measure, in the same setting: under `O=C(Nc1ccccc1C(=O)NCCCN1CCOCC1)c1ccccc1F` [Compound 34, 2-fluoro-N-(2-((3-morpholinopropyl)carbamoyl)phenyl) benzamide] stands 76 to 79 °C; under `O=C(Nc1ccccc1C(=O)NCCN1CCNCC1)c1ccc(F)cc1F` [Compound 45, 2,4-difluoro-N-(2-((2-(piperazin-1-yl)ethyl)carbamoyl)phenyl) benzamide], 84 °C.
Still for that read-out and setting: under `CN1CCN(CCNC(=O)c2ccccc2NC(=O)c2cc(F)cc(F)c2)CC1` [Compound 56, 3,5-difluoro-N-(2-((2-(4-methylpiperazin-1-yl)ethyl)carbamoyl)phenyl)benzamide] stands 111 °C; under `CN1CCN(CCCNC(=O)c2ccccc2NC(=O)c2ccc3ccccc3c2)CC1` [Compound 69, N-(2-((3-(4-methylpiperazin-1-yl)propyl)carbamoyl)phenyl)-2-naphthamide], 71 to 72 °C.
Same read-out and setting: then `COc1cccc(C(=O)NCCc2ccccc2)c1NC(=O)c1ccccc1F` [Compound 84, 2-(2-fluorobenzamido)-3-methoxy-N-phenethylbenzamide], with 130 to 132 °C.
`O=C(Nc1ccccc1C(=O)NCCc1ccccc1)c1cccnc1` [Compound 94, N-(2-(phenethylcarbamoyl)phenyl)nicotinamide] gave a melting point of 94 °C.
In turn, `CN1CCN(CCNC(=O)c2ccccc2NC(=O)c2ccccc2F)CC1` [Compound 49, 2-fluoro-N-(2-((2-(4-methylpiperazin-1-yl)ethyl)carbamoyl)phenyl)benzamide] registered a melting point of 116 °C. In addition, in data set [1], the “potency of effect in Model 1 relative to compound 28” value is “more potent effects than compound 28” and the “inhibition of metastasis / tumour burden in Model 1” value was “equivalent inhibition of metastasis in vivo to compound 12”.
In the case of `CN1CCN(CCNC(=O)c2ccccc2NC(=O)c2cccc(F)c2)CC1` [Compound 50, 2-(3-fluorobenzamido)-N-(2-(4-methylpiperazin-1-yl)ethyl) benzamide], the melting point is 81 °C.
The same measure, in the same setting: then `COc1cc(NC(=O)c2cccnc2)c(C(=O)NCCN2CCN(C)CC2)cc1OC` [Compound 64, N-(4,5-dimethoxy-2-((2-(4-methylpiperazin-1-yl)ethyl)carbamoyl)phenyl)nicotinamide], with 126 °C.
Still for that read-out and setting: then `O=C(Nc1ccccc1C(=O)NCCCN1CCOCC1)c1ccc2ccccc2c1` [Compound 37, N-(2-((3-morpholinopropyl)carbamoyl)phenyl)-2-naphthamide], with 103 to 105 °C.
Same read-out and setting: under `O=C(Nc1cccc(F)c1C(=O)NCCN1CCOCC1)c1ccccc1F` [Compound 13, 2-fluoro-6-(2-fluorobenzamido)-N-(2-morpholinoethyl) benzamide] stands 88 to 90 °C; under `O=C(Nc1ccccc1C(=O)NCCN1CCNCC1)c1cccc(Cl)c1` [Compound 102, 2-(3-chlorobenzamido)-N-(2-(piperazin-1-yl)ethyl)benzamide], 59 to 61 °C; under `COc1cccc(C(=O)NCCCc2ccccc2)c1NC(=O)c1ccc2ccccc2c1` [Compound 120, N-(2-methoxy-6-((3-phenylpropyl)carbamoyl)phenyl)-2-naphthamide], 152 to 154 °C.
Turning to `O=C(Nc1ncccc1C(=O)O)c1ccccc1F` [Compound 105, 2-(2-fluorobenzamido)nicotinic acid], the melting point is greater than 90 °C.
`O=C(NCCN1CCOCC1)c1ccccc1NC(=O)c1ccccc1C(F)(F)F` [Compound 9, N-(2-morpholinoethyl)-2-(2-(trifluoromethyl)benzamido) benzamide] had a melting point of 90 to 92 °C.
Still for that read-out and setting: then `COc1cccc(C(=O)NCCc2ccccc2)c1NC(=O)c1cccc(F)c1` [Compound 85, 2-(3-fluorobenzamido)-3-methoxy-N-phenethylbenzamide], with 99 to 101 °C; and `COc1ccc(C(=O)Nc2ccccc2C(=O)NCCCc2ccccc2)cc1` [Compound 96, 2-(4-methoxybenzamido)-N-(3-phenylpropyl)benzamide], with 93 to 94 °C; and `COc1cccc(C(=O)Nc2cccc(F)c2C(=O)NCCN2CCN(C)CC2)c1` [Compound 110, 2-fluoro-6-(3-methoxybenzamido)-N-(2-(4-methylpiperazin-1-yl)ethyl)benzamide], with 108 to 110 °C.
The same measure, in the same setting: under `O=C(Nc1ccccc1C(=O)NCCc1ccccc1)c1ccc(Cl)cc1` [Compound 76, 2-(4-chlorobenzamido)-N-phenethylbenzamide] stands 104 to 106 °C; under `O=C(Nc1ccccc1C(=O)NCCN1CCOCC1)c1cccnc1` [Compound 32, N-(2-((2-morpholinoethyl)carbamoyl)phenyl)nicotinamide], 85 °C; under `COc1ccc(C(=O)Nc2cc(OC)c(OC)c(OC)c2C(=O)NCCN2CCN(C)CC2)cc1` [Compound 62, 2,3,4-trimethoxy-6-(4-methoxybenzamido)-N-(2-(4-methylpiperazin-1-yl)ethyl)benzamide], 115 °C.
Same read-out and setting: under `COc1cccc(C(=O)NCCc2ccccc2)c1NC(=O)c1ccc(F)cc1` [Compound 86, 2-(4-fluorobenzamido)-3-methoxy-N-phenethylbenzamide] stands 140 to 142 °C.

For the origin of these results see patent US10273218B2, “BCL-3 inhibitors” (University College Cardiff Consultants Limited, priority 2014, dated 2019).
